US9156822B2, “Functionally selective ligands of dopamine D2 receptors” (The University of North Carolina at Chapel Hill, priority 2010, dated 2015)
Read-outs that look alike come from different tables or passages of the source.

Legend:
[1] = in vivo; settings: mouse
[2] = biological target: hD2 receptors (Homo sapiens (Human), UniProt P14416); experiment: D2 mediated cAMP GloSensor assay; assay type: cell-based; settings: for EC50: HEK293T, isoproterenol-stimulated cAMP; for Emax: normalized to quinpirole, negative = inverse agonist, read-out: cAMP (GloSensor) Emax; on cAMP (GloSensor) activity in words (merged EC50/Emax cell): key: neutral: Neutral ligands are either antagonists or are inactive
hD2 receptors, sequence (P14416 whole entry): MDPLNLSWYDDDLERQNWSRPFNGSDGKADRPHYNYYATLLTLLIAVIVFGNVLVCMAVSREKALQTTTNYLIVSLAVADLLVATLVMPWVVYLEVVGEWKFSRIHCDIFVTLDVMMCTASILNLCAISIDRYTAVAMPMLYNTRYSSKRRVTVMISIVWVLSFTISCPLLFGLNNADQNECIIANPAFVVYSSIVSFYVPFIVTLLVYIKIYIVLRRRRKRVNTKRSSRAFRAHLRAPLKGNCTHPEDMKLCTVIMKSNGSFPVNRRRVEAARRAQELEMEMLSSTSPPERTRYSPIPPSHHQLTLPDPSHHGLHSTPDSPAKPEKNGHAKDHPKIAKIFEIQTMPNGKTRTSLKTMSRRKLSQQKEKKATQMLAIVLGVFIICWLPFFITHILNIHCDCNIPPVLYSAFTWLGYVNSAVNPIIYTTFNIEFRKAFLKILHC

[3] = biological target: T1, D2 receptors (Homo sapiens (Human), UniProt P14416); experiment: D2 β-arrestin recruitment (Tango) assay; assay type: cell-based; settings: for Emax: normalized to quinpirole (100%)
Protocol: The next day, cells were plated in white, clear-bottom, 384-well plates (Greiner, 10,000 cells/well, 50 μl/well) in DMEM containing 1% dialyzed fetal bovine serum. […] Data were normalized to vehicle (0%) and quinpirole (100%) controls and regressed using the sigmoidal dose-response function built into GraphPad Prism 4.0.
Target sequence in this assay (P14416 whole entry, looked up): as the sequence (P14416 whole entry) above

[4] = biological target: T1, D2 receptors; experiment: CHO-D2 radioligand binding assay ([3H]N-methylspiperone competition); settings: CHO-D2 membranes, [3H]N-methylspiperone; read-out: D2 Binding Ki ± SEM
Target sequence in this assay (P14416 whole entry): as above

[5] = HTLA cells, read-out: β-arrestin (Tango) EC50

| SMILES | EC50 [2] | Emax [2] | EC50 [3, 5] | Emax [3] | Ki [4] | also measured |
| --- | --- | --- | --- | --- | --- | --- |
| O=C1CCc2ccc(OCCCCN3CCN(c4cccc(Cl)c4Cl)CC3)cc2N1 [Aripiprazole, aripiprazole, reference compound] |  |  |  |  |  | AUC(0-inf) ([1]; brain): 1180 ng·h/mL; AUC(0-t) ([1]; brain): 1100 ng·h/mL; Cmax ([1]; brain): 166 ng/mL; Tmax ([1]; brain): 30 min; AUC(0-inf) ([1]; plasma): 445 ng·h/mL; AUC(0-t) ([1]; plasma): 431 ng·h/mL; Cmax ([1]; plasma): 75.6 ng/mL; Tmax ([1]; plasma): 15 min |
| O=C1CCc2ccc(OCCCN3CCCN(c4cccc(Cl)c4Cl)CC3)cc2N1 [Compound 1, 7-(3-(4-(2,3-dichlorophenyl)-1,4-diazepan-1-yl)propoxy)-3,4-dihydroquinolin-2(1H)-one] |  |  |  |  |  | melting point: 130 to 131 °C |
| O=C1NCCc2ccc(OCCCN3CCCN(c4cccc(Cl)c4Cl)CC3)cc21 [Compound 5, 7-(3-(4-(2,3-dichlorophenyl)-1,4-diazepan-1-yl)propoxy)-3,4-dihydroisoquinolin-1(2H)-one] | 5.6 nM | -16% | 8 nM | 47% | 5.7 ± 0.8 nM | melting point: 116 to 117 °C; β-arrestin (Tango) % activ at 1 μM [3]: 13% |
| O=C1NCCc2ccc(OCCCCN3CCCN(c4cccc(Cl)c4Cl)CC3)cc21 [Compound 6, 7-(4-(4-(2,3-dichlorophenyl)-1,4-diazepan-1-yl)butoxy)-3,4-dihydroisoquinolin-1(2H)-one] |  |  |  |  |  | melting point: 86 to 88 °C |
| Clc1cccc(N2CCCN(CCCCOc3ccc4scnc4c3)CC2)c1Cl [Compound 7, 5-(4-(4-(2,3-dichlorophenyl)-1,4-diazepan-1-yl)butoxy)benzo[d]thiazole] |  |  |  |  |  | melting point: 82 to 84 °C |
| Clc1cccc(N2CCCN(CCCOc3ccc4scnc4c3)CC2)c1Cl [Compound 8, 5-(3-(4-(2,3-dichlorophenyl)-1,4-diazepan-1-yl)propoxy)benzo[d]thiazole] |  | -26% |  |  |  | melting point: 93 to 94 °C |
| COc1ccccc1N1CCCN(CCCCOc2ccc3c(c2)NC(=O)CC3)CC1 [Compound 9, 7-(4-(4-(2-methoxyphenyl)-1,4-diazepan-1-yl)butoxy)-3,4-dihydroquinolin-2(1H)-one] | 163 nM | -63% | 4.6 nM | 26% | 4 nM |  |
| COc1ccccc1N1CCCN(CCCCOc2ccc3ccc(=O)[nH]c3c2)CC1 [Compound 10, 7-(4-(4-(2-methoxyphenyl)-1,4-diazepan-1-yl)butoxy)quinolin-2(1H)-one] |  |  |  | 16% |  |  |
| COc1ccccc1N1CCCN(CCCCOc2ccc3c(n2)NC(=O)CC3)CC1 [Compound 11, 7-(4-(4-(2-methoxyphenyl)-1,4-diazepan-1-yl)butoxy)-3,4-dihydro-1,8-naphthyridin-2(1H)-one] |  | -118% |  | 21% |  |  |
| CCOc1ccccc1N1CCCN(CCCCOc2ccc3c(c2)NC(=O)CC3)CC1 [Compound 12, 7-(4-(4-(2-ethoxyphenyl)-1,4-diazepan-1-yl)butoxy)-3,4-dihydroquinolin-2(1H)-one] |  |  | 4.3 nM | 41% | 4.1 ± 0.2 nM | cAMP (GloSensor) activity in words (merged EC50/Emax cell) [2]: neutral |
| CCOc1ccccc1N1CCCN(CCCCOc2ccc3c(n2)NC(=O)CC3)CC1 [Compound 13, 7-(4-(4-(2-ethoxyphenyl)-1,4-diazepan-1-yl)butoxy)-3,4-dihydro-1,8-naphthyridin-2(1H)-one] |  |  | 4 nM | 43% | 4.4 ± 0.3 nM | cAMP (GloSensor) activity in words (merged EC50/Emax cell) [2]: neutral |
| CCOc1ccccc1N1CCCN(CCCCOc2ccc3ccc(=O)[nH]c3c2)CC1 [Compound 14, 7-(4-(4-(2-ethoxyphenyl)-1,4-diazepan-1-yl)butoxy)quinolin-2(1H)-one] |  |  |  | 58% |  |  |
| O=c1ccc2ccc(OCCCN3CCCN(c4cccc(Cl)c4Cl)CC3)cc2[nH]1 [Compound 15, 7-(3-(4-(2,3-dichlorophenyl)-1,4-diazepan-1-yl)propoxy)quinolin-2(1H)-one] | 13 nM | 64% | 2.2 nM | 84% | 3.4 ± 0.2 nM | melting point: 117 to 118 °C |
| CC(C)Oc1ccccc1N1CCCN(CCCCOc2ccc3c(c2)NC(=O)CC3)CC1 [Compound 16, 7-(4-(4-(2-isopropoxyphenyl)-1,4-diazepan-1-yl)butoxy)-3,4-dihydroquinolin-2(1H)-one] |  |  | 4.2 nM | 53% | 0.87 ± 0.04 nM | cAMP (GloSensor) activity in words (merged EC50/Emax cell) [2]: neutral |
| CC(C)Oc1ccccc1N1CCCN(CCCCOc2ccc3c(n2)NC(=O)CC3)CC1 [Compound 17, 7-(4-(4-(2-isopropoxyphenyl)-1,4-diazepan-1-yl)butoxy)-3,4-dihydro-1,8-naphthyridin-2(1H)-one] | 0.2 nM | 18% | 4.6 nM | 56% | 1.29 ± 0.03 nM |  |
| CC(C)Oc1ccccc1N1CCCN(CCCCOc2ccc3ccc(=O)[nH]c3c2)CC1 [Compound 18, 7-(4-(4-(2-isopropoxyphenyl)-1,4-diazepan-1-yl)butoxy)quinolin-2(1H)-one] | 0.1 nM | 32% | 4.2 nM | 58% | 0.93 ± 0.03 nM |  |
| O=c1[nH]c2ccc(OCCCN3CCCN(c4cccc(Cl)c4Cl)CC3)cc2[nH]1 [Compound 19, 5-(3-(4-(2,3-dichlorophenyl)-1,4-diazepan-1-yl)propoxy)-1H-benzo[c]imidazol-2(3H)-one] |  |  | 8.5 nM | 48% | 4.5 ± 0.2 nM | melting point: 148 to 150 °C; cAMP (GloSensor) activity in words (merged EC50/Emax cell) [2]: neutral |
| O=c1[nH]c2ccc(OCCCCN3CCC(c4cccc(Cl)c4Cl)CC3)cc2[nH]1 [Compound 24, 5-(4-(4-(2,3-dichlorophenyl)piperidin-1-yl)butoxy)-1H-benzo[d]imidazol-2(3H)-one] |  |  |  |  |  | melting point: 180 to 182 °C |
| O=C1NCCc2ccc(OCCCCN3CCN(c4cccc(Cl)c4Cl)CC3)cc21 [Compound 25, 7-(4-(4-(2,3-dichlorophenyl)piperazin-1-yl)butoxy)-3,4-dihydroisoquinolin-1(2H)-one] | 3700 nM | -74% | 18 nM | 55% | 18 ± 3 nM | β-arrestin (Tango) % activ at 1 μM [3]: 12% |
| O=C1CCc2ccc(OCC3CCC(CN4CCN(c5cccc(Cl)c5Cl)CC4)CC3)cc2N1 (stereo not drawn) [Compound 26, 7-((4-((4-(2,3-dichlorophenyl)piperazin-1-yl)methyl)cyclohexyl)methoxy)-3,4-dihydroquinolin-2(1H)-one] | 46000 nM | -25% | 2100 nM | 51% | 145 ± 22 nM | β-arrestin (Tango) % activ at 1 μM [3]: 6% |
| Clc1cccc(N2CCN(CCCCOc3ccc4cn[nH]c4c3)CC2)c1Cl [Compound 28, 6-(4-(4-(2,3-dichlorophenyl)piperazin-1-yl)butoxy)-1H-indazole] | 5.7 nM | -29% | 92 nM | 65% | 66 ± 10 nM | β-arrestin (Tango) % activ at 1 μM [3]: 18% |
| O=C1CCc2ccc(Oc3ccc(CN4CCN(c5cccc(Cl)c5Cl)CC4)cc3)cc2N1 [Compound 31, 7-(4-((4-(2,3-dichlorophenyl)piperazin-1-yl)methyl)phenoxy)-3,4-dihydro quinolin-2(1H)-one] | 5.7 nM | -47% | 399 nM | 49% | 108 ± 18 nM | β-arrestin (Tango) % activ at 1 μM [3]: 16% |
| O=C1NCCc2ccc(OCCCN3CCN(c4cccc(Cl)c4Cl)CC3)cc21 [Compound 32, 7-(3-(4-(2,3-dichlorophenyl)piperazin-1-yl)propoxy)-3,4-dihydroisoquinolin-1(2H)-one] |  |  | 30 nM | 83% | 18 ± 2 nM | cAMP (GloSensor) activity in words (merged EC50/Emax cell) [2]: neutral; β-arrestin (Tango) % activ at 1 μM [3]: 44% |
| O=c1[nH]c2ccc(OCCCN3CCN(c4cccc(Cl)c4Cl)CC3)cc2[nH]1 [Compound 34, 5-(3-(4-(2,3-dichlorophenyl)piperazin-1-yl)propoxy)-1H-benzo[d]imidazol-2(3H)-one] | 512 nM | 25% |  | 78% | 25 ± 3 nM | EC50 [3]: 52 nM; β-arrestin (Tango) % activ at 1 μM [3]: 36% |
| O=c1[nH]c2ccc(OCCCCN3CCN(c4cccc(Cl)c4Cl)CC3)cc2[nH]1 [Compound 35] |  |  | 16 nM |  | 15 ± 3 nM | cAMP (GloSensor) activity in words (merged EC50/Emax cell) [2]: neutral; β-arrestin (Tango) % activ at 1 μM [3]: 19% |
| COc1ccccc1N1CCN(CCCCOc2ccc3c(n2)NC(=O)CC3)CC1 [Compound 37] | 11 nM | 17% |  | 67% | 1.7 ± 0.1 nM | EC50 [3]: 1 nM |
| O=C1CCc2ccc(OCCCCN3CCN(c4cccc5c4OCCO5)CC3)cc2N1 [Compound 40, 7-(4-(4-(2,3-dihydrobenzo[b][1,4]dioxin-5-yl)piperazin-1-yl)butoxy)-3,4-dihydroquinolin-2(1H)-one] |  |  | 1.5 nM | 33% | 0.3 ± 0.02 nM | cAMP (GloSensor) activity in words (merged EC50/Emax cell) [2]: neutral |
| O=C1CCc2ccc(OCCCCN3CCN(c4cccc5c4OCCO5)CC3)nc2N1 [Compound 41, 7-(4-(4-(2,3-dihydrobenzo[b][1,4]dioxin-5-yl)piperazin-1-yl)butoxy)-3,4-dihydro-1,8-naphthyridin-2(1H)-one] | 0.4 nM | -19% | 0.6 nM | 31% | 0.45 ± 0.02 nM |  |
| CC(=O)Nc1cc(OCCCCN2CCN(c3cccc(Cl)c3Cl)CC2)ccc1C [Compound 43, N-(5-(4-(4-(2,3-dichlorophenyl)piperazin-1-yl)butoxy)-2-methylphenyl)acetamide] |  |  | 9.2 nM | 59% | 72 ± 4 nM | cAMP (GloSensor) activity in words (merged EC50/Emax cell) [2]: neutral |
